In patent US9878986B2, “Compounds for selective histone deacetylase inhibitors, and pharmaceutical composition comprising the same” (CHONG KUN DANG PHARMACEUTICAL CORP., priority 2013, dated 2018):

Key:
[1] = molecular target: T1, HDAC 6 (Homo sapiens, UniProt Q9UBN7); test: Test of HDAC activities, HDAC6 (fluorimetric); type: biochemical; design: purchased Calbiochem 382180; settings: samples at 0.1, 1, 10, 100, 1000 nM; 37° C. 60 minutes; fluorescence Ex 390, Em 460; read-out: HDAC inhibitory activities, HDAC6
T1 sequence (Q9UBN7 1-1215): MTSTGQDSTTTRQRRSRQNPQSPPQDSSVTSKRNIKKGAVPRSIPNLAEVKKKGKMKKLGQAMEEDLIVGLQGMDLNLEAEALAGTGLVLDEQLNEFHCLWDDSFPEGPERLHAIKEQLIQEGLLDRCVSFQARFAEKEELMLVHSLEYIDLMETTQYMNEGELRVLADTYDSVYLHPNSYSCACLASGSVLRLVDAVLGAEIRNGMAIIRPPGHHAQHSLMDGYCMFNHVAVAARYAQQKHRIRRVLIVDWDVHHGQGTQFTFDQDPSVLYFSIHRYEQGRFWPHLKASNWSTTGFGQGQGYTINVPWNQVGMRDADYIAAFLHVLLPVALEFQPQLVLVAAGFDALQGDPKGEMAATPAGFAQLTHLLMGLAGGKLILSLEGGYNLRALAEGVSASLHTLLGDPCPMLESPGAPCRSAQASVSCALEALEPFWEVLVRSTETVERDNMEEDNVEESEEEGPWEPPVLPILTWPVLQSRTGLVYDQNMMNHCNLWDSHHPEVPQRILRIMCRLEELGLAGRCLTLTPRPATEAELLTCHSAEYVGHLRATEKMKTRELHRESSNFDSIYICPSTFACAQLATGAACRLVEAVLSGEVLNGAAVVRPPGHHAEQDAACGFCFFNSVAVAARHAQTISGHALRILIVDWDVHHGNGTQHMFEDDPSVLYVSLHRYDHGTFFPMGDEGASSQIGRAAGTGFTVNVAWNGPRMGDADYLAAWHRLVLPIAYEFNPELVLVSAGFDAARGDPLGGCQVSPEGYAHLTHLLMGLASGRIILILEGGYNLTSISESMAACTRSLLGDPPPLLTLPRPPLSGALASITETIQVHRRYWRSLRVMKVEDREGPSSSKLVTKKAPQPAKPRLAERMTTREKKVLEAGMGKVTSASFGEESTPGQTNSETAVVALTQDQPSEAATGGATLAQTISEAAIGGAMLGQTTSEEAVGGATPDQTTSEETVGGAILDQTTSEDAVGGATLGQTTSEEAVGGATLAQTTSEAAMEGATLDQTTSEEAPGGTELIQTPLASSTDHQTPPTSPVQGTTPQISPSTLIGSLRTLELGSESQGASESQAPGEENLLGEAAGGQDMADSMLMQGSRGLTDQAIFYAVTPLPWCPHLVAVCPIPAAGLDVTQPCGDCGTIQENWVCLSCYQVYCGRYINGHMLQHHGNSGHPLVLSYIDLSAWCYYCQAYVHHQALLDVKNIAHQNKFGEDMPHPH
Experimental: (§1) The HDAC inhibitory activities of test materials were measured using the HDAC1 Fluorimetric Drug Discovery Assay Kit (Enzolifesciences: BML-AK511) and HDAC6 human recombinant (Calbiochem: 382180). In the HDAC1 assay, the samples were treated with concentrations of 100, 1000, and 10000 nM, and in the HDAC6 assay, the samples were treated with concentrations of 0.1, 1, 10, 100, and 1000 nM. After the treatment of the samples, the samples were reacted at 37° C. for 60 minutes, treated with a developer, and then reacted at 37° C. for 30 minutes. Then, the fluorescence intensity (Ex 390, Em 460) was measured using the FlexStation 3 (Molecular device).

[2] = molecular target: HDAC1 (Homo sapiens, UniProt Q13547); test: Test of HDAC activities, HDAC1 Fluorimetric Drug Discovery Assay Kit; type: biochemical; design: purchased Enzolifesciences BML-AK511; settings: samples at 100, 1000, 10000 nM; 37° C. 60 minutes; fluorescence Ex 390, Em 460; read-out: HDAC inhibitory activities, HDAC1
HDAC1, sequence (Q13547 whole entry): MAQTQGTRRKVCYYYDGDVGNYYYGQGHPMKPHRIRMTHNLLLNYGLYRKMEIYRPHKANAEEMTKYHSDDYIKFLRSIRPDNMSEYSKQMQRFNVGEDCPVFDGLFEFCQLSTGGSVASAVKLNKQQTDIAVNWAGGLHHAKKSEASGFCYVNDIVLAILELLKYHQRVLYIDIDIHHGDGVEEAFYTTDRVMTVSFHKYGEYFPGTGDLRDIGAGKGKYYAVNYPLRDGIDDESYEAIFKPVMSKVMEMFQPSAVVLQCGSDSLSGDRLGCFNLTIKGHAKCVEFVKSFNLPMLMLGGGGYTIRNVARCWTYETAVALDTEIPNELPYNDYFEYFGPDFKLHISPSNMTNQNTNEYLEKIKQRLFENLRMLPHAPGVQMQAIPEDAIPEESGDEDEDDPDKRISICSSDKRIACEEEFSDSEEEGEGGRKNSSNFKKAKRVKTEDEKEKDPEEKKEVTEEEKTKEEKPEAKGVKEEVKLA
Experimental: as §1

IC50 [1] | IC50 [2] | SMILES
4 nM | – | CN1CCCN(C(=O)N(Cc2ccc(C(=O)NO)cc2)c2ccccn2)CC1 [Compound 376, N-(4-(hydroxycarbamoyl)benzyl)-4-methyl-N-(pyridin-2-yl)-1,4-diazepane-1-carboxamide]
19 nM | 703 nM | CC(=O)N1CCC(c2cccc(N(Cc3ccc(C(=O)NO)cc3)C(=O)N3CCOCC3)c2)CC1 [Compound 490, N-(3-(1-acetylpiperidin-4-yl)phenyl)-N-(4-(hydroxycarbamoyl)benzyl)morpholine-4-carboxamide]
3 nM | 2370 nM | O=C(NO)c1ccc(CN(C(=O)N2CCCCC2)c2cccc(C(F)(F)F)c2)cc1 [Compound 460, N-(4-(hydroxycarbamoyl)benzyl)-N-(3-(trifluoromethyl)phenyl)piperidine-1-carboxamide]
6 nM | 1450 nM | O=C(NO)c1ccc(CN(C(=O)N2CCC(O)(c3ccccc3)CC2)c2ccc(C(F)(F)F)cc2)cc1 [Compound 486, 4-hydroxy-N-(4-(hydroxycarbamoyl)benzyl)-4-phenyl-N-(4-(trifluoromethyl)phenyl)piperidine-1-carboxamide]
27 nM | 4710 nM | O=C(NO)c1ccc(CN(C(=O)N2CCC[C@H]2C(F)(F)F)c2cccc(C(F)(F)F)c2)cc1 [Compound 498, (S)—N-(4-(hydroxycarbamoyl)benzyl)-2-(trifluoromethyl)-N-(3-(trifluoromethyl)phenyl)pyrrolidine-1-carboxamide]
4.5 nM | 1890 nM | O=C(NO)c1ccc(CN(C(=O)N2CCOCC2)c2ccc(Cl)cn2)cc1 [Compound 533, N-(5-chloropyridin-2-yl)-N-(4-(hydroxycarbamoyl)benzyl)morpholine-4-carboxamide]
2 nM | 447 nM | Cc1ccc(N(Cc2ccc(C(=O)NO)cc2)C(=O)N2CCN(C)CC2)c(F)c1 [Compound 441, N-(2-fluoro-4-methylphenyl)-N-(4-(hydroxycarbamoyl)benzyl)-4-methylpiperazine-1-carboxamide]
3 nM | 1270 nM | O=C(NO)c1ccc(CN(C(=O)N2CCCCC2)c2ccc(F)c(Cl)c2)cc1 [Compound 456, N-(3-chloro-4-fluorophenyl)-N-(4-(hydroxycarbamoyl)benzyl)piperidine-1-carboxamide]
1 nM | 164 nM | O=C(NO)c1ccc(CN(C(=O)N2CCOCC2)c2cccc(-c3cccnc3)c2)cc1 [Compound 262, N-(4-(hydroxycarbamoyl)benzyl)-N-(3-(pyridin-3-yl)phenyl)morpholine-4-carboxamide]
10 nM | 12300 nM | O=C(NO)c1ccc(CN(C(=O)N2CCCC2)c2cccc(-c3ccc4c(c3)OCO4)c2)cc1 [Compound 468, N-(3-(benzo[d][1,3]dioxol-5-yl)phenyl)-N-(4-(hydroxycarbamoyl)benzyl)pyrrolidine-1-carboxamide]
7 nM | 22700 nM | O=C(NO)c1ccc(CN(C(=O)N2CCOCC2)c2ncccn2)cc1 [Compound 312, N-(4-(hydroxycarbamoyl)benzyl)-N-(pyrimidin-2-yl)morpholine-4-carboxamide]
2.5 nM | 349 nM | O=C(NO)c1ccc(CN(C(=O)N2CCOCC2)c2ccc(OC(F)(F)F)cc2)cc1 [Compound 772, N-(4-(hydroxycarbamoyl)benzyl)-N-(4-(trifluoromethoxy)phenyl)morpholine-4-carboxamide]
5 nM | 1220 nM | CC1CN(C(=O)N(Cc2ccc(C(=O)NO)cc2)c2ccc(F)cc2F)CC(C)O1 (stereo not shown) [Compound 415, N-(2,4-difluorophenyl)-N-(4-(hydroxycarbamoyl)benzyl)-2,6-dimethylmorpholine-4-carboxamide]
11 nM | 2590 nM | CCN1CCN(C(=O)N(Cc2ccc(C(=O)NO)cc2)c2ccc(Cl)c(C(F)(F)F)c2)CC1 [Compound 394, N-(4-chloro-3-(trifluoromethyl)phenyl)-4-ethyl-N-(4-(hydroxycarbamoyl)benzyl)piperazine-1-carboxamide]
1 nM | 680 nM | O=C(NO)c1ccc(CN(C(=O)N2CCN(c3ccc(F)cc3)CC2)c2ccc(F)c(Cl)c2)cc1 [Compound 482, N-(3-chloro-4-fluorophenyl)-4-(4-fluorophenyl)-N-(4-(hydroxycarbamoyl)benzyl)piperazine-1-carboxamide]
9.3 nM | 1250 nM | O=C(NO)c1ccc(CN(C(=O)N2CC(F)(F)C2)c2ccc(C(F)(F)F)cc2)c(F)c1 [Compound 578, 3,3-difluoro-N-(2-fluoro-4-(hydroxycarbamoyl)benzyl)-N-(4-(trifluoromethyl)phenyl) azetidine-1-carboxamide]
3 nM | 1450 nM | CC(C)(C)OC(=O)N1CC=C(c2cccc(N(Cc3ccc(C(=O)NO)cc3)C(=O)N3CCOCC3)c2)CC1 [Compound 405, tert-butyl 4-(3-(N-(4-(hydroxycarbamoyl)benzyl)morpholine-4-carboxamido)phenyl)-5,6-dihydropyridine-1(2H)-carboxylate]
16 nM | 3500 nM | CN1CC=C(c2cccc(N(Cc3ccc(C(=O)NO)cc3)C(=O)N3CCOCC3)c2)CC1 [Compound 404, N-(4-(hydroxycarbamoyl)benzyl)-N-(3-(1-methyl-1,2,3,6-tetrahydropyridin-4-yl)phenyl) morpholine-4-carboxamide]
15 nM | 654 nM | O=C(NO)c1ccc(CN(C(=O)N2CCC(O)CC2)c2cccc(-c3ccc4c(c3)OCO4)c2)c(F)c1 [Compound 513, N-(3-(benzo[d][1,3]dioxol-5-yl)phenyl)-N-(2-fluoro-4-(hydroxycarbamoyl)benzyl)-4-hydroxypiperidine-1-carboxamide]
20 nM | 6220 nM | CC1CCN(C(=O)N(Cc2ccc(C(=O)NO)cc2)c2ccc(Cl)c(C(F)(F)F)c2)CC1 [Compound 390, N-(4-chloro-3-(trifluoromethyl)phenyl)-N-(4-(hydroxycarbamoyl)benzyl)-4-methylpiperidine-1-carboxamide]
1 nM | 1170 nM | O=C(NO)c1ccc(CN(C(=O)N2CCCCC2)c2ccc(F)cc2F)cc1 [Compound 414, N-(2,4-difluorophenyl)-N-(4-(hydroxycarbamoyl)benzyl)piperidine-1-carboxamide]
2 nM | 988 nM | Cc1ccc(N(Cc2ccc(C(=O)NO)cc2)C(=O)N2CC(C)OC(C)C2)c(F)c1 (stereo not shown) [Compound 440, N-(2-fluoro-4-methylphenyl)-N-(4-(hydroxycarbamoyl)benzyl)-2,6-dimethylmorpholine-4-carboxamide]
5 nM | – | O=C(NO)c1ccc(CN(C(=O)N2CCC2)c2ccccn2)cc1 [Compound 377, N-(4-(hydroxycarbamoyl)benzyl)-N-(pyridin-2-yl)azetidine-1-carboxamide]
3 nM | – | O=C(NO)c1ccc(CN(C(=O)N2CCN(Cc3ccccc3)CC2)c2ncccn2)cc1 [Compound 309, 4-benzyl-N-(4-(hydroxycarbamoyl)benzyl)-N-(pyrimidin-2-yl)piperazine-1-carboxamide]
4 nM | – | Cc1ccc(N2CCN(C(=O)N(Cc3ccc(C(=O)NO)cc3)c3ccccn3)CC2)cc1C [Compound 379, 4-(3,4-dimethylphenyl)-N-(4-(hydroxycarbamoyl)benzyl)-N-(pyridin-2-yl)piperazine-1-carboxamide]
